Experimental data from PMC6556873, “Rapid Covalent-Probe Discovery by Electrophile-Fragment Screening” (Journal of the American Chemical Society, 2019).
Read-outs that look alike come from different tables or passages of the source.

Experiments:
BSA = target: T1, BSA (Bos taurus, UniProt P02769); design: Intact protein LC/MS covalent labelling, fragments in pools of five, 200 uM each, 4 °C; conditions: 24 h, 4 °C, pool of five; 200 µM; covalent
T1 construct: gene ALB

NNMT (hNNMT) = target: T2, NNMT (hNNMT) (Homo sapiens, UniProt P40261); design: Intact protein LC/MS covalent labelling, fragments in pools of five, 200 uM each, 4 °C; conditions: 24 h, 4 °C, pool of five; 200 µM; covalent
T2 construct: wild type, N-terminal His6 tag kept (no cleavage described), E. coli, construct 31248 Da
T2 sequence (P40261 1-264): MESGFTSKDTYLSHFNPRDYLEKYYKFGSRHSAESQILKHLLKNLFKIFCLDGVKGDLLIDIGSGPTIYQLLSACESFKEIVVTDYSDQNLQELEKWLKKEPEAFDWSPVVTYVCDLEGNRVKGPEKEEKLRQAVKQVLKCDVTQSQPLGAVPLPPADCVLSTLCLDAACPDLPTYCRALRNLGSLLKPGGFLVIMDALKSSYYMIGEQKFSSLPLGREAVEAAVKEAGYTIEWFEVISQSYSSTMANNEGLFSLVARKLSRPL

NUDT7 = target: T3, NUDT7 (Homo sapiens, UniProt P0C024); design: Intact protein LC/MS covalent labelling, fragments in pools of five, 200 uM each, 4 °C; conditions: 24 h, 4 °C, pool of five; 200 µM; covalent
T3 construct: residues 14-235, E. coli, pNIC28-Bsa4, N-terminal His6 tag removed by TEV, construct 26672 Da
T3 sequence (P0C024 14-235): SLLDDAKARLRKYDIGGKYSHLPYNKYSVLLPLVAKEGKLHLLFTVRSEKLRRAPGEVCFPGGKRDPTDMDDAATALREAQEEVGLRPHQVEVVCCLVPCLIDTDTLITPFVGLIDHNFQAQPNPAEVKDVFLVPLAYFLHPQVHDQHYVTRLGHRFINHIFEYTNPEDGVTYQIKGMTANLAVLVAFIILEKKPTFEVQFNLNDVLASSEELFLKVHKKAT

OTUB2 (OTUB2A) = target: T4, OTUB2 (OTUB2A) (Homo sapiens, UniProt Q96DC9); design: Intact protein LC/MS covalent labelling, fragments in pools of five, 200 uM each, 4 °C; conditions: 24 h, 4 °C, pool of five; 200 µM; covalent
T4 construct: full length residues 1-234, E. coli BL21(DE3)-R3, His tag removed by TEV, construct 27312 Da
T4 sequence (Q96DC9 1-234): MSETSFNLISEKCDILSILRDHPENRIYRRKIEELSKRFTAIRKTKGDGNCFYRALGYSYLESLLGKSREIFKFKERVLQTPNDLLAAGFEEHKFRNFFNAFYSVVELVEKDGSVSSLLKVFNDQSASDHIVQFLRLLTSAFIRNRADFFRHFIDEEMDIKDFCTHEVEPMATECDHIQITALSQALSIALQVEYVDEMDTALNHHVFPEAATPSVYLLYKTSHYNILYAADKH

PCAF = target: T5, PCAF (Homo sapiens, UniProt Q92831); design: Intact protein LC/MS covalent labelling, fragments in pools of five, 200 uM each, 4 °C; conditions: 24 h, 4 °C, pool of five; 200 µM; covalent
T5 construct: gene KAT2B
T5 sequence (Q92831 whole entry, the tested form may be a part): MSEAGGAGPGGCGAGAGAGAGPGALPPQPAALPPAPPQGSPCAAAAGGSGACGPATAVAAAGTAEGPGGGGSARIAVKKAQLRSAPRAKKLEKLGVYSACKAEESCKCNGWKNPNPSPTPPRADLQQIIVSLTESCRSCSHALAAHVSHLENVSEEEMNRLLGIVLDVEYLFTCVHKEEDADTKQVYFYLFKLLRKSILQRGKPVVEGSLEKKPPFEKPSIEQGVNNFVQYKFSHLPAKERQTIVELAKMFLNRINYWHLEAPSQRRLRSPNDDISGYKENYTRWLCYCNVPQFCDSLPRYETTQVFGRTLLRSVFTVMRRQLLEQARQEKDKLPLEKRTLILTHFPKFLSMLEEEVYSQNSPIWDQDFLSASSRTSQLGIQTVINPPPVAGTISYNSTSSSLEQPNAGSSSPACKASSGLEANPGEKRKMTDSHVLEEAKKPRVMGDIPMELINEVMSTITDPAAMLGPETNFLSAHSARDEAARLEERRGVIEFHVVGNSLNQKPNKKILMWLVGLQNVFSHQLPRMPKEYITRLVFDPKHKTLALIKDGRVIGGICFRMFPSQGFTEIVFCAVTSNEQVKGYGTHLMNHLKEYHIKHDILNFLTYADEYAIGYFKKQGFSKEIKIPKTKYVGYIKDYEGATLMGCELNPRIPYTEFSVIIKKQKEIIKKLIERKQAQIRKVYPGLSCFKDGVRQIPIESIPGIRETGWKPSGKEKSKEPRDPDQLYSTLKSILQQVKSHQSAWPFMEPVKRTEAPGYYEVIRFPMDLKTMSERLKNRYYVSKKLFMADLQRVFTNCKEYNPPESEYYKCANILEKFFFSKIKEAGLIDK

in vitro [1] = experiment: in vitro; design: species or system CCD841, HEK293; conditions: human, hb2 cells, read-out: HB-2 Cells Viability (%)
in vitro [2] = experiment: in vitro; design: species or system HB2, HEK293; conditions: human, ccd841 cells
in vitro [3] = experiment: in vitro; design: species or system HB2, CCD841; conditions: human, hek293 cells

T1 sequence (P02769 whole entry, the tested form may be a part): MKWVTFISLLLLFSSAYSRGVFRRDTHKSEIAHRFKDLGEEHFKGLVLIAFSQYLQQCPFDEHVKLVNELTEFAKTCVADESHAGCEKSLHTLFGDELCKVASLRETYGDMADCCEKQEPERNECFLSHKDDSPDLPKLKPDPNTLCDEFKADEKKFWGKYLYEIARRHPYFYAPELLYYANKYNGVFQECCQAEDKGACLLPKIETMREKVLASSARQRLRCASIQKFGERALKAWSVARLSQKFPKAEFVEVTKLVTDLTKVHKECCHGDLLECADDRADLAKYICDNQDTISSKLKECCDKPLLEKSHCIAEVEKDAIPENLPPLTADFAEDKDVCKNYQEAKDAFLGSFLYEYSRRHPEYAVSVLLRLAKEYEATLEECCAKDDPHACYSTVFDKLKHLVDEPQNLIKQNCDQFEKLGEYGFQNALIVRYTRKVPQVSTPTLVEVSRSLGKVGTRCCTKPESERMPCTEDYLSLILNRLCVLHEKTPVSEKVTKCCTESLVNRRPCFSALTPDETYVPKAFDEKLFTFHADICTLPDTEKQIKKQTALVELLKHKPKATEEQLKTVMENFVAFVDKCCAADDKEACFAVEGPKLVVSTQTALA

SMILES | BSA (BSA) | NNMT (NNMT (hNNMT)) | NUDT7 (NUDT7) | OTUB2 (OTUB2 (OTUB2A)) | PCAF (PCAF) | viability at 48 h, 10 µM (in vitro [1]) | viability at 48 h, 10 µM (in vitro [2]) | viability at 48 h, 10 µM (in vitro [3])
COc1ccccc1C(=O)NC(=O)CCl [PCM-0102574] | 0 | 0 | 0 | 0 | 0 | 104% | 127% | 118%
CN(Cc1ccc(Cl)s1)C(=O)CCl [PCM-0102898] | 0 | 0.47 | 0.29 | 0 | 0 | 11% | 46.5% | 7.8%
COC(=O)c1cc(NC(=O)CCl)cn1C [PCM-0102545] | 0 | 0.16 | 0 | 0.33 | 0 | 54.5% | 65.4% | 12.7%
C=CC(=O)N1CCC(c2nc3cccc(C)c3o2)CC1 [PCM-0102530] | – | 0 | 0 | 0 | 0 | 108% | 101% | 94%
CC(C)N(C(=O)CCl)C(C)C [PCM-0103023] | 0 | 0 | 0 | 0 | 0 | 102% | 106% | 110%
CC(NC(=O)NC(=O)CCl)C1CC2CCC1C2 (stereo not shown) [PCM-0102997] | 0 | 0.23 | 0 | 0.05 | 0 | 98.1% | 116% | 91.4%
CN(CCC#N)C(=O)CCl [PCM-0102712] | 0 | 0.32 | 0 | 0 | 0 | 89.4% | 79.6% | 80.3%
C=CC(=O)N1CCC(n2ccc(C(F)(F)F)n2)CC1 [PCM-0102435] | 0 | 0 | 0 | 0 | 0 | 96.3% | 93.3% | 85.7%
Cl.O=C(CCl)N1CCN(Cc2ccc(Br)s2)CC1 [PCM-0102169] | 0 | 0 | 0 | 0 | 0 | 8.8% | 33% | 8.6%
O=C(CCl)Nc1ccnn1C1CCCC1 [PCM-0102336] | 0 | 0 | 0 | 0.19 | 0 | 41.3% | 60.4% | 7.7%
C#Cc1cccc(NC(=O)NC(=O)CCl)c1 [PCM-0102813] | 0 | 0 | 0.13 | 0.14 | 0 | 74.1% | 82.2% | 73.2%
C=CC(=O)Nc1cccc(C(F)(F)F)c1 [PCM-0102573] | 0 | 0 | 0 | 0 | 0 | 103% | 105% | 108%
C=CC(=O)N1CCN(C(=O)Cc2c(C)noc2C)CC1 [PCM-0102531] | 0 | 0 | 0 | 0 | 0 | 106% | 106% | 91.3%
CC(NC(=O)CCl)c1ccc(F)cc1 (stereo not shown) [PCM-0102228] | 0 | 0 | 0.07 | 0.2 | 0 | 84.6% | 83.2% | 63.8%
CCOC(=O)C1CCCN(C(=O)CCl)C1 (stereo not shown) [PCM-0103015] | 0 | 0.13 | 0 | 0.09 | 0 | 104% | 98.8% | 98.8%
Cl.O=C(CCl)Nc1ccc(Cl)cn1 [PCM-0103036] | 0.19 | 0.19 | 0 | 0 | 0 | 98.5% | 96.4% | 113%
N#CC1(NC(=O)CCl)CCCCC1 [PCM-0102993] | 0 | 0 | 0.08 | 0 | 0 | 87.6% | 83.3% | 66%
C=CC(=O)N1CCCC1c1cccc2c1OCCO2 (stereo not shown) [PCM-0102489] | – | 0 | 0 | 0 | 0 | 96.3% | 99.1% | 89.9%
O=C(CCl)N1CCN(C(=O)C2CC2)CC1 [PCM-0102970] | – | 0 | 0.07 | 0 | 0 | 83.8% | 72.5% | 66.6%
O=C1CN(C(=O)CCl)C2(CCCCC2)C(=O)N1 [PCM-0102139] | – | 0 | 0.22 | 0.05 | 0 | 98.9% | 95.8% | 96.3%
N#Cc1ccc(CNC(=O)CCl)cc1 [PCM-0102946] | – | 0.23 | 0 | 0.35 | 0 | 85% | 74.8% | 88.1%
